According to patent US20090227492A1, “TREATMENT OF NEUROLOGICAL CONDITIONS USING COMPLEMENT C5a RECEPTOR MODULATORS” (priority 2004, published 2009):
Each block holds one molecule with its values, some of them ahead of it. Bridge positions count the residues as written; N and C are the ends. Square brackets hold non-standard residues; d marks the D form. Peptide text beside a SMILES is read from it. * marks the point of attachment. Hydrocinnamoyl = O=C(CCc1ccccc1)*; Cit = NC(=O)NCCC[C@H](N)C(=O)O; dCha = N[C@H](CC1CCCCC1)C(=O)O; Orn = NCCC[C@H](N)C(=O)O

Assays:
3-NP rat model [1] = test: 3-NP rat model (3-nitropropionic acid neurotoxicity); assay type: in vivo
Experimental: Unless otherwise stated, the protocol for induction of 3-NP neurotoxicity employed in the present study was similar to that of Blum et al (2001; 2002), except that we used 42 mg/kg/day for 7 days rather than 56 mg/kg for 5 days. Briefly, a 90 mg/mL solution of 3-NP in PBS (0.1 M, pH 7.4) was prepared and adjusted to pH 7.4 with 5M NaOH. Alzet osmotic mini-pumps (model 2ML1, delivering 10 μL/hr for 7 days) filled with this solution were implanted into 12 week old male Lewis rats, so that each rat received exactly 42 mg/kg/day.
Rats were housed in individual cages. The rats were anaesthetised with ketamine, xylazine and zolazapam. A pump was inserted s.c. into the back of each rat via an incision between the scapulae, and the incision closed with wound clips. Following recovery from anaesthesia, food intake, body weight and neurological were evaluated daily over the next 7 days. Neurological and behavioural evaluation according to standard criteria was also performed at several points by an observer blinded to the identity of the groups.
After completion of the study, rats were deeply anaesthetised with xylazine and ketamine. The rats were then perfused with approximately 100 mL of sodium nitrite solution to remove blood, followed by approximately 400 mL of formaldehyde solution to fix the brains in situ. Brains were then carefully removed and stored in formaldehyde solution for at least 3 days, before processing for histology. Slides were stained with cresyl violet and examined by light microscopy. […]
PMX53 (10 mg/kg/day) and PMX205 (10 mg/kg/day) were administered daily by gavage and ibuprofen (30 mg/kg/day) administered in the drinking water, beginning 2 days prior to 3-NP administration. Infliximab was administered as a single 5 mg/kg i.v. infusion on Day 0. […]

3-NP rat model [2] = test: histological and histochemical examination of rat brain sections from the 3-NP model (naphthyl esterase, TUNEL); assay type: in vivo; conditions: brain sections of rats of Example 2
Description: Paraffin sections of brain tissue from the rats used in Example 2 were stained with hematoxylin and eosin and examined under the microscope. […] The TUNEL (TdT-mediated dUTP Nick-End Labeling) assay (Gavrieli, Y., et al. (1992) J. Cell. Biol. 119, 493.) measures nuclear DNA fragmentation, which is an important biochemical hallmark of apoptosis. […] Brain sections were therefore also stained for TUNEL analysis using a standard kit (ApopTag Plus/TUNEL method; Chemicon). Striatal sections of brains containing the area of interest were fixed to a slide and deparaffinized. Slides were then pretreated with Proteinase K (20 μg/mL), and endogenous peroxidases quenched with 3% hydrogen peroxide. Equilibration buffer was then added, followed by TdT enzyme for 1 hour. Samples were then washed, and anti-digoxigenin conjugate added for 30 min. Peroxidase substrate (diaminobenzidine) was then added, and colour allowed to develop over 6 min. Samples were then counterstained with 0.5% methyl green and mounted with Permount. Sections were washed in PBS (0.1 M, ph 7.4) in between each step.

[3] = system: Transgenic Sprague-Dawley rats carrying mutant SOD-1 gene; test: transgenic SOD-1 rat model of ALS; assay type: in vivo; conditions: approximately 1 mg/kg/day in drinking water from 70 days of age; for average age of onset of loss of motor function: male rats, untreated 116+/−4 days; for percent survival over time (mortality) / percentage of rats showing onset of motor symptoms over time: vs untreated
Experimental: Treatment commenced when the rats were 70 days of age. Drugs were dosed in the drinking water at approximately 1 mg/kg/day. A group of 3 wild type (WT) Sprague-Dawley rats (G63) were included as sham control animals. Rats were then monitored daily for signs of motor disturbance, using the following scale:
Body weights were also recorded daily. Rats were euthanised when they reached a score of 4 for the righting response, or had lost >20% of their peak body weight.

[4] = levels of PMX compounds in brain and plasma following i.v. injection (blood-brain barrier); conditions: female Wistar rats; 3 mg/kg i.v.; 15 min; brain perfused with saline
Experimental: Rats were then left for 15 min, at which point a sample of blood was taken from the tail for plasma collection, and rats were then perfused via cardiac puncture with 150 mL of saline to remove blood from the brain. The brain was then dissected out. Plasma and brain samples of were prepared for pharmacokinetic analysis, and the levels of PMX compounds determined in each sample.

[5] = Example 2, PMX53, PMX205 10 mg/kg/day gavage, ibuprofen 30 mg/kg/day drinking water, infliximab 5 mg/kg i.v. Day 0, 7 days

Molecule: infliximab [reference compound]
neurological/behavioural score (3-NP rat model [1]; [5]): little if any effect

Molecule: CC(=O)N[C@@H](Cc1ccccc1)C(=O)N[C@H]1CCCNC(=O)[C@H](CCCNC(=N)N)NC(=O)[C@H](Cc2c[nH]c3ccccc23)NC(=O)[C@@H](CC2CCCCC2)NC(=O)[C@@H]2CCCN2C1=O [PMX53, AcPhe[Orn-Pro-D-Cyclohexylalanine-Trp-Arg]]
loss of body weight (3-NP rat model [1]; Example 1 pilot, 2 mg/kg daily in drinking water plus 1 mg/kg s.c. Days 0, 3, 6, 8, Days 5-7, P<0.05, n=5, vs untreated): significantly less loss of body weight | neurological/behavioural score (3-NP rat model [1]; Example 1 pilot, 2 mg/kg daily in drinking water plus 1 mg/kg s.c., Days 4-9, P<0.05, n=5, vs untreated): significantly decreased neurological/behavioural scores | food intake (3-NP rat model [1]; Example 1 pilot, 2 mg/kg daily in drinking water plus 1 mg/kg s.c., Days 5-7, P<0.05, n=5, vs untreated): significantly greater food intake | necrotic cells in the striatal regions (cresyl violet histology) (3-NP rat model [1]; Example 1 pilot, vs controls): fewer necrotic cells | necrotic cells in the striatal regions (cresyl violet histology) (3-NP rat model [1]; Example 2, 10 mg/kg/day gavage, day 7): fewer necrotic cells | neurological/behavioural score (3-NP rat model [1]; [5]): significant protection | degree of apoptosis (TUNEL) (3-NP rat model [2]): reduced the degree of apoptosis | neutrophil infiltration (naphthyl esterase stain) (3-NP rat model [2]): completely prevented neutrophil infiltration | average age of onset of loss of motor function [3]: 124 ± 10 days | percent survival over time (mortality) [3]: possibly a small improvement | percentage of rats showing onset of motor symptoms over time [3]: possibly a small improvement

Molecule: CC(C)Cc1ccc(C(C)C(=O)O)cc1 (stereo not drawn) [ibuprofen, reference compound]
neurological/behavioural score (3-NP rat model [1]; [5]): an effect only up to Day 5

levels in the brain as a percentage of the levels in the blood (absorption into the brain) [4]: lower degree of absorption
Molecule: NC(=O)NCCC[C@@H]1NC(=O)[C@H](Cc2c[nH]c3ccccc23)NC(=O)[C@@H](CC2CCCCC2)NC(=O)[C@@H]2CCCN2C(=O)[C@@H](NC(=O)CCc2ccccc2)CCCNC1=O [PMX200, HC-[OPdChaWCit]] (Hydrocinnamoyl-[Orn]P[dCha]W[Cit]; lactam 1-C)

Molecule: N=C(N)NCCC[C@@H]1NC(=O)[C@H](Cc2c[nH]c3ccccc23)NC(=O)[C@@H](CC2CCCCC2)NC(=O)[C@@H]2CCCN2C(=O)[C@@H](NC(=O)CCc2ccccc2)CCCNC1=O [PMX205, Hydrocinnamate-[OpdChaWR]] (Hydrocinnamoyl-[Orn]P[dCha]WR; lactam 1-C)
neurological/behavioural score (3-NP rat model [1]; [5]): significant protection | degree of apoptosis (TUNEL) (3-NP rat model [2]): reduced the degree of apoptosis | neutrophil infiltration (naphthyl esterase stain) (3-NP rat model [2]): completely prevented neutrophil infiltration | period between the first loss of body weight and the first observable loss of motor function [3]: particularly striking | average age of onset of loss of motor function [3]: 138 ± 7 days | percent survival over time (mortality) [3]: clear delay of mortality | percentage of rats showing onset of motor symptoms over time [3]: clear delay of motor onset
